According to patent publication US20160175313A1, “ENTECAVIR MICROSPHERES AND PHARMACEUTICAL COMPOSITION FOR PARENTERAL ADMINISTRATION CONTAINING SAME” (priority 2013, published 2016):

Columns and labels:
[1] = orally administered; cited from earlier work
HBV = settings: first-time patients, oral preparations, cited from earlier work
[2] = Solubility of entecavir in organic solvent; format: physicochemical
rats = system: rats
Protocol: A test was conducted to determine whether local irritation is caused by subcutaneous administration of entecavir into rats.
After entecavir (2.33 mg/kg/day) was subcutaneously injected into 15 male rats per each group, mortality, common symptoms, body weight, autopsy and histopathological evaluation on 1, 4, 5, 8 and 12 weeks were checked to compare with the control group in which excipient was administered.

[3] = rat, in vivo, sc, 2.33 mg/kg/day

## C=C1[C@H](CO)[C@@H](O)C[C@@H]1n1cnc2c(=O)[nH]c(N)nc21 [entecavir, Entecavir]
[1]
  bioavailability: ~100%
HBV; 1 year
  patients HBV-undetectable after 1 year of administration: about 70%
HBV; 3 years
  patients HBV-undetectable after 3 years: about 90%
[2]
  solubility in methylene chloride: insoluble
rats; male rats, 2.33 mg/kg/day subcutaneous, checked up to 12 weeks
  mortality: no dead animal was observed
rats; rat, in vivo, sc
  local toxicity, overall conclusion: did not show harmful local toxicity
rats; [3]
  abnormal symptoms and abnormal body weight change related to administration: not observed
  autopsy results: no abnormal finding
  inflammation (histopathology): inflammation was observed
  recovery from inflammation: all animals recovered from inflammation
rats; rats, 4 weeks after subcutaneous administration, 2.33 mg/kg/day
  injection site microscopy (H&E staining), inflammatory cells: some subcutaneous tissue inflammatory cells were observed
